Source: patent US10167279B2 (NOVARTIS AG, priority 2014, dated 2019)

The molecules below were run against C-Raf FL (Homo sapiens (Human), UniProt P04049, Y340E/Y341E) (assay: In vitro Raf activity determination (Alpha Screen, phospho-MEK), C-Raf FL (full length, Y340E/Y341E)). Conditions: ATP 1 μM; 60 min pre-incubation; 1 hour reaction; column head does not say FL or TR.
C-Raf FL, sequence (P04049 whole entry Y340E/Y341E): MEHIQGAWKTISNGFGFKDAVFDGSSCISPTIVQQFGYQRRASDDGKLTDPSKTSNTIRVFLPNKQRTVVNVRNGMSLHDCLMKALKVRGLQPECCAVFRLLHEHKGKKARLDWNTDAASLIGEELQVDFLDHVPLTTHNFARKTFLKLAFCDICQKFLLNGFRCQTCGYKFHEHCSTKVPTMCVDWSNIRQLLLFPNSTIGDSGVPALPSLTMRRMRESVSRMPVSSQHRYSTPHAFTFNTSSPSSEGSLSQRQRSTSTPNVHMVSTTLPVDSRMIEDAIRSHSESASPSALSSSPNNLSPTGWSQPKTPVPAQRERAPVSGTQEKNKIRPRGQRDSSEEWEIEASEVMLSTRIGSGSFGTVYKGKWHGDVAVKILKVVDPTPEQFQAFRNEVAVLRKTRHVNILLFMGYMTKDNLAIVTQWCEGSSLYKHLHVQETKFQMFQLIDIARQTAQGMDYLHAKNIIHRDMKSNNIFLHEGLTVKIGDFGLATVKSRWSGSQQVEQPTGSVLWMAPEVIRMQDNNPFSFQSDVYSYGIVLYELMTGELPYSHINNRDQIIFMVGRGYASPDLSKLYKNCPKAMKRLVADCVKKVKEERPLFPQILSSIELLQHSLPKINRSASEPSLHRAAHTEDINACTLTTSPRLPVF
C-Raf FL, sequence (P63104 whole entry partner): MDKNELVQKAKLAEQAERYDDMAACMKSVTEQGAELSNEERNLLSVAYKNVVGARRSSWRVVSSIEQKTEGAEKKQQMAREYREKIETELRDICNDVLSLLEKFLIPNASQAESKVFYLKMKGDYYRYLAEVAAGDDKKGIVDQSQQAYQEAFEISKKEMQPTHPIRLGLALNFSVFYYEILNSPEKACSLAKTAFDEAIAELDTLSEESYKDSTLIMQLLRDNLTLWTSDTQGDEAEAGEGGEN
Type: biochemical
Text: The activity of a compound according to the present invention can be assessed by well-known in vitro & in vivo methods. Raf inhibition data provided herein was obtained using the following procedures.
Sf9 cells co-expressing both proteins were lysed and subjected to immobilized nickel chromatography and eluted with Imidazole. A second column (StrepII binding column) was used and eluted with desthiobiotin. Protein Tags were removed using Prescission enzyme and the protein was further purified using a flowthrough step to remove tags.
C-Raf TR refers to a truncated C-Raf protein, a Δ1-324 deletion mutant. C-Raf FL refers to the full-length C-Raf protein.
Full length MEK1 with an inactivating K97R ATP binding site mutation is utilized as a RAF substrate. The MEK1 cDNA was subcloned with an N-terminal (his)6 tag into a vector for E. Coli expression. The MEK1 substrate was purified from E. Coli lysate by nickel affinity chromatography followed by anion exchange. The final MEK1 preparation was biotinylated (Pierce EZ-Link Sulfo-NHS-LC-Biotin) and concentrated.
Assay protocol: Raf and biotinylated Mek (kinase dead) were combined at 2× final concentrations in assay buffer (50 mM Tris, pH 7.5, 15 mM MgCl2, 0.01% BSA and 1 mM DTT) and dispensed […] per well in assay plates (Greiner white 384 well assay plates #781207) containing […] of 40× of a Raf kinase inhibitor test compound diluted in 100% DMSO. The plate was incubated for 60 minutes at room temperature. […] The reactions were stopped and the phosphorylated product was measured using a rabbit anti-p-MEK (Cell Signaling, #9121) antibody and the Alpha Screen IgG (ProteinA) detection Kit (PerkinElmer #6760617R), by the addition of […] to the well of a mixture of the antibody (1:2000 dilution) and detection beads (1:2000 dilution of both beads) in Stop/bead buffer (25 mM EDTA, 50 mM Tris, pH 7.5, 0.01% Tween20). The additions were carried out under dark conditions to protect the detection beads from light. A lid was placed on top of the plate and incubated for 1 hour at room temperature, after which the luminescence was read on a PerkinElmer Envision instrument. The concentration of each compound for 50% inhibition (IC50) was calculated by non-linear regression using XL Fit data analysis software.
In the case of `CCOc1ncc(-c2cc(NC(=O)c3cccc(C(F)(F)F)c3)cnc2C)cc1C1(F)CCOC1` (centres unmarked) [Example 297, N-(6′-ethoxy-5′-(3-fluorotetrahydro-furan-3-yl)-2-methyl-[3,3′-bipyridin]-5-yl)-3-(trifluoro-methyl)benzamide], the IC50 is reported as 1 nM.
In the case of `Cc1ncc(NC(=O)c2ccnc(C(C)(C)F)c2)cc1-c1cnc(OCCO)c(C2(F)COC2)c1` [Example 40, N-(5′-(3-fluorooxetan-3-yl)-6′-(2-hydroxyethoxy)-2-methyl-[3,3′-bipyridin]-5-yl)-2-(2-fluoropropan-2-yl)isonicotinamide], the IC50 is reported as 3.47 nM.
In the case of `Cc1ccc(NC(=O)c2ccnc(C(F)(F)F)c2)cc1-c1cc(C2CCOCC2)c(N[C@H](C)CO)nn1` [Example 310, (R)-N-(3-(6-((1-hydroxypropan-2-yl)amino)-5-(tetrahydro-2H-pyran-4-yl)pyridazin-3-yl)-4-methylphenyl)-2-(trifluoromethyl) isonicotinamide], the IC50 is reported as 0.04 nM.
Work on `Cc1ccc(NC(=O)c2ccnc(C(F)(F)F)c2)cc1-c1cc2c(c(C3CCOCC3)c1)NC(=O)C(C)(CO)O2` (centres unmarked) [Example 242, N-(3-(2-(hydroxymethyl)-2-methyl-3-oxo-5-(tetrahydro-2H-pyran-4-yl)-3,4-dihydro-2H-benzo[b][1,4]oxazin-7-yl)-4-methylphenyl)-2-(trifluoromethyl) isonicotinamide] yielded an IC50 of 0.1 nM.
`COC1(c2cc(-c3cc(NC(=O)c4ccnc(C(F)(F)F)c4)ccc3C)cnc2OCCO)COC1` [Example 59, N-(3-(6-(2-hydroxyethoxy)-5-(3-methoxyoxetan-3-yl)pyridin-3-yl)-4-methylphenyl)-2-(trifluoromethyl)isonicotin-amide] showed an IC50 of 0.103 nM.
Molecule `Cc1ncc(NC(=O)c2cccc(C(F)(F)F)c2)cc1-c1cc(NCCO)nc(C2CCOCC2)c1` [Example 180, N-(2′-((2-hydroxyethyl)amino)-2-methyl-6′-(tetrahydro-2H-pyran-4-yl)-[3,4′-bipyridin]-5-yl)-3-(trifluoromethyl) benzamide] has an IC50 of 0.297 nM.
Work on `Cc1ccc(NC(=O)c2ccnc(C(C)(F)F)c2)cc1-c1cc(OCCO)nc(C2CCOCC2)c1` [Example 269, 2-(1,1-difluoroethyl)-N-(3-(2-(2-hydroxyethoxy)-6-(tetrahydro-2H-pyran-4-yl)pyridin-4-yl)-4-methylphenyl) isonicotinamide] yielded an IC50 of 0.03 nM.
`Cc1ccc(NC(=O)c2cc(C(F)(F)F)ccn2)cc1-c1cc(OC[C@@H](O)CO)nc(C2CCOCC2)c1` [Example 284] showed an IC50 of 0.2 nM.
With `Cc1ccc(NC(=O)c2ccnc(C(C)(C)C#N)c2)cc1-c1cc(OCCO)nc(C2CCOCC2)c1` [Example 270, 2-(2-cyanopropan-2-yl)-N-(3-(2-(2-hydroxyethoxy)-6-(tetrahydro-2H-pyran-4-yl)pyridin-4-yl)-4-methylphenyl) isonicotinamide] the IC50 was 0.09 nM.
Work on `Cc1ccc(NC(=O)c2ccnc(C(C)(C)C#N)c2)cc1-c1cc(C2CCOCC2)nc(N(CCO)CCO)c1` [Example 179, N-(3-(2-(bis(2-hydroxyethyl)amino)-6-(tetrahydro-2H-pyran-4-yl)pyridin-4-yl)-4-methylphenyl)-2-(2-cyanopropan-2-yl) isonicotinamide] yielded an IC50 of 0.795 nM.
Work on `Cc1ccc(NC(=O)c2ccnc(C(F)(F)F)c2)cc1-c1cc(OCCO)nc(C2(C(F)F)COC2)c1` [Example 58, N-(3-(2-(3-(difluoromethyl)oxetan-3-yl)-6-(2-hydroxyethoxy)pyridin-4-yl)-4-methylphenyl)-2-(trifluoromethyl)isonicotin-amide] yielded an IC50 of 0.0155 nM.
For `COC1(c2cc(-c3cc(NC(=O)c4ccnc(C(C)(F)F)c4)ccc3C)cnc2OCCO)COC1` [Example 60, 2-(1,1-difluoroethyl)-N-(3-(6-(2-hydroxyethoxy)-5-(3-methoxyoxetan-3-yl)pyridin-3-yl)-4-methylphenyl)isonicotin-amide], the IC50 was 0.203 nM.
Work on `Cc1ccc(NC(=O)c2cccc(C(F)(F)F)c2)cc1-c1cc(C2CCOCC2)nc(N(CCO)CCO)c1` [Example 178] yielded an IC50 of 0.136 nM.
With `Cc1ccc(NC(=O)C2CCNC(C(F)(F)F)C2)cc1-c1cc(C2CCOCC2)nc(N2CCC(C)(N)CC2)c1` (centres unmarked) [Example 320] the IC50 was 350 nM.
Work on `COc1ncc(-c2cc(C(=O)Nc3cc(C(C)(C)N)cc(C(F)(F)F)c3)ccc2C)cc1C1(O)COC1` [Example 150, N-(3-(2-aminopropan-2-yl)-5-(trifluoromethyl)phenyl)-3-(5-(3-hydroxyoxetan-3-yl)-6-methoxypyridin-3-yl)-4-methylbenzamide] yielded an IC50 of 3 nM.
Molecule `COc1cc(C(=O)Nc2ccc(C)c(-c3cc(OCCO)nc(C4CCOCC4)c3)c2)ncn1` [Example 267, N-(3-(2-(2-hydroxyethoxy)-6-(tetrahydro-2H-pyran-4-yl)pyridin-4-yl)-4-methylphenyl)-6-methoxypyrimidine-4-carboxamide] has an IC50 of 0.005 nM.
`Cc1ccc(NC(=O)c2ccnc(C(C)(F)F)c2)cc1-c1cc(C2(O)COC2)cc(C2(F)COC2)c1` [Example 136, 2-(1,1-difluoroethyl)-N-(3′-(3-fluorooxetan-3-yl)-5′-(3-hydroxyoxetan-3-yl)-6-methyl-[1,1′-biphenyl]-3-yl)isonicotinamide] gave an IC50 of 0.177 nM.
`CCOc1ncc(-c2cc(NC(=O)c3ccnc(C(C)(C)F)c3)cnc2C)cc1C1(F)CCOC1` (centres unmarked) [Example 298, N-(6′-ethoxy-5′-(3-fluorotetrahydro-furan-3-yl)-2-methyl-[3,3′-bipyridin]-5-yl)-2-(2-fluoropropan-2-yl)isonicotinamide] gave an IC50 of 2 nM.
In the case of `Cc1ccc(NC(=O)c2cc(C(F)(F)F)ncn2)cc1-c1cc(OCCO)nc(C2CCOCC2)c1` [Example 260, N-(3-(2-(2-hydroxyethoxy)-6-(tetrahydro-2H-pyran-4-yl)pyridin-4-yl)-4-methylphenyl)-6-(trifluoromethyl) pyrimidine-4-carboxamide], the IC50 is reported as 0.08 nM.
For `Cc1ncc(NC(=O)c2cccc(C(F)(F)F)c2)cc1-c1cc(C2(C)COC2)c(OCCO)nn1` [Example 16, N-(5-(6-(2-hydroxyethoxy)-5-(3-methyloxetan-3-yl)pyridazin-3-yl)-6-methylpyridin-3-yl)-3-(trifluoromethyl)benzamide], the IC50 was 0.4 nM.
For `Cc1ccc(NC(=O)c2cccc(C(F)(F)F)c2)cc1-c1cccc(C2COC2)c1` [Example 2, N-(6-methyl-3′-(oxetan-3-yl)-[1,1′-biphenyl]-3-yl)-3-(trifluoromethyl)benzamide], the IC50 was 0.7 nM.
With `COC1(c2cc(-c3cc(NC(=O)c4cccc(C(F)(F)F)c4)ccc3C)cc(NCCO)n2)COC1` [Example 153, N-(3-(2-((2-hydroxyethyl)amino)-6-(3-methoxyoxetan-3-yl)pyridin-4-yl)-4-methylphenyl)-3-(trifluoromethyl)benzamide] the IC50 was 0.04 nM.
Molecule `Cc1ccc(NC(=O)c2ccnc(C(F)(F)F)c2)cc1-c1cc(NCCO)nc(C2(O)COC2)c1` [Example 299, N-(3-(2-((2-hydroxyethyl)amino)-6-(3-hydroxyoxetan-3-yl)pyridin-4-yl)-4-methylphenyl)-2-(trifluoromethyl) isonicotinamide] has an IC50 of 0.1 nM.
Work on `CCOc1ncc(-c2cc(NC(=O)c3cnnc(C(F)(F)F)c3)cnc2C)cc1C1CCOCC1` [Example 163, N-(6′-ethoxy-2-methyl-5′-(tetrahydro-2H-pyran-4-yl)-[3,3′-bipyridin]-5-yl)-6-(trifluoromethyl) pyridazine-4-carboxamide] yielded an IC50 of 0.3 nM.
Molecule `Cc1ccc(NC(=O)c2ccnc(C(F)(F)F)c2)cc1-c1cc2c(c(C3CCOCC3)c1)OC(C)(C)C(=O)N2` [Example 196, N-(3-(2,2-dimethyl-3-oxo-8-(tetrahydro-2H-pyran-4-yl)-3,4-dihydro-2H-benzo[b][1,4]oxazin-6-yl)-4-methylphenyl)-2-(trifluoromethyl) isonicotinamide] has an IC50 of 0.4 nM.
In the case of `Cc1ccc(NC(=O)c2ccnc(C(F)(F)F)c2)cc1-c1cc(OCCO)nc(C2CCOCC2O)c1` (single isomer, unassigned) [Example 250], the IC50 is reported as 1 nM.
`Cc1ccc(NC(=O)c2cc(C(F)(F)F)ccn2)cc1-c1cc(NCCO)nc(C2(O)CCOCC2)c1` [Example 303, N-(3-(2-((2-hydroxyethyl)amino)-6-(4-hydroxytetrahydro-2H-pyran-4-yl)pyridin-4-yl)-4-methylphenyl)-4-(trifluoromethyl) picolinamide] was tested, and the IC50 was 1.99 nM.
Work on `CCOc1nnc(-c2cc(NC(=O)c3cc(C(F)(F)F)ncn3)ccc2C)cc1C1CCOCC1` [Example 232] yielded an IC50 of 0.03 nM.
`Cc1ccc(NC(=O)c2cccc(C(F)(F)F)c2)cc1-c1cn(C)c(=O)c(C2COC2)n1` [Example 4, N-(4-methyl-3-(4-methyl-6-(oxetan-3-yl)-5-oxo-4,5-dihydropyrazin-2-yl)phenyl)-3-(trifluoromethyl)benzamide] was tested, and the IC50 was 3 nM.
